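Exposure lasted 48 hours, with cells grown in 96-well plates and compounds tested at five concentrations. GI50 is the concentration that inhibits growth by half.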 Calls of active or inactive are those of the source. Rule as the data show it: active = GI50 up to about 1.1 µM and inactive = higher.
Experiments:
Assay in all cases: NCI anticancer screen, dose series, 48 h
LXFL 529 = tested on: LXFL 529
MOLT-4 = tested on: MOLT-4
OVCAR-4 = tested on: OVCAR-4
Malme-3M = tested on: Malme-3M
HCT-116 = tested on: HCT-116
A549 = tested on: A549
SF-268 = tested on: SF-268
ACHN = tested on: ACHN
HCT-15 = tested on: HCT-15
UACC-62 = tested on: UACC-62
OVCAR-5 = tested on: OVCAR-5
SR = tested on: SR
NCI-H460 = tested on: NCI-H460
CAKI-1 = tested on: CAKI-1
NCI-H226 = tested on: NCI-H226
M19-MEL = tested on: M19-MEL
SF-539 = tested on: SF-539
XF498 = tested on: XF498
RPMI-8226 = tested on: RPMI-8226
EKVX = tested on: EKVX
HOP-62 = tested on: HOP-62
SNB-75 = tested on: SNB-75
DLD-1 = tested on: DLD-1
CCRF-CEM = tested on: CCRF-CEM
SN12C = tested on: SN12C
SK-MEL-2 = tested on: SK-MEL-2
HT-29 = tested on: HT-29
NCI-H23 = tested on: NCI-H23
OVCAR-3 = tested on: OVCAR-3
LOX IMVI = tested on: LOX IMVI
HCC 2998 = tested on: HCC 2998
SNB-19 = tested on: SNB-19
RXF 393 = tested on: RXF 393
COLO 205 = tested on: COLO 205
K562 = tested on: K562
UO-31 = tested on: UO-31
SK-OV-3 = tested on: SK-OV-3
NCI-H522 = tested on: NCI-H522
KM-20L2 = tested on: KM-20L2
SF-295 = tested on: SF-295
DMS-273 = tested on: DMS-273
SK-MEL-28 = tested on: SK-MEL-28
HOP-18 = tested on: HOP-18
786-0 = tested on: 786-0
HOP-92 = tested on: HOP-92
SK-MEL-5 = tested on: SK-MEL-5
UACC-257 = tested on: UACC-257
OVCAR-8 = tested on: OVCAR-8
SNB-78 = tested on: SNB-78
TK-10 = tested on: TK-10
M14 = tested on: M14
HL-60 = tested on: HL-60
KM12 = tested on: KM12
SW-620 = tested on: SW-620
U-251 = tested on: U-251
A498 = tested on: A498
IGROV-1 = tested on: IGROV-1
DMS-114 = tested on: DMS-114

CCOc1ccc(N(CC(=O)N2CC(=O)Nc3cc(C)c(C)cc32)C(C)=O)cc1
GI50 (LXFL 529): > 100 µM (inactive) | GI50 (MOLT-4): > 100 µM (inactive) | GI50 (OVCAR-4): > 100 µM (inactive) | GI50 (Malme-3M): > 100 µM (inactive) | GI50 (HCT-116): > 100 µM (inactive) | GI50 (A549): > 100 µM (inactive) | GI50 (SF-268): 87.5 µM (inactive) | GI50 (ACHN): > 100 µM (inactive) | GI50 (HCT-15): > 100 µM | GI50 (UACC-62): > 100 µM (inactive) | GI50 (OVCAR-5): > 100 µM (inactive) | GI50 (SR): > 100 µM (inactive) | GI50 (NCI-H460): > 100 µM (inactive) | GI50 (CAKI-1): > 100 µM (inactive) | GI50 (NCI-H226): > 100 µM (inactive) | GI50 (M19-MEL): > 100 µM (inactive) | GI50 (SF-539): > 100 µM (inactive) | GI50 (XF498): > 100 µM (inactive) | GI50 (RPMI-8226): > 100 µM (inactive) | GI50 (EKVX): > 100 µM (inactive) | GI50 (HOP-62): > 100 µM (inactive) | GI50 (SNB-75): > 100 µM (inactive) | GI50 (DLD-1): > 100 µM (inactive) | GI50 (CCRF-CEM): > 100 µM (inactive) | GI50 (SN12C): > 100 µM (inactive) | GI50 (SK-MEL-2): > 100 µM (inactive) | GI50 (HT-29): > 100 µM (inactive) | GI50 (NCI-H23): > 100 µM (inactive) | GI50 (OVCAR-3): 63.8 µM (inactive) | GI50 (LOX IMVI): > 100 µM (inactive) | GI50 (HCC 2998): > 100 µM (inactive) | GI50 (SNB-19): > 100 µM (inactive) | GI50 (RXF 393): > 100 µM (inactive) | GI50 (COLO 205): > 100 µM (inactive) | GI50 (K562): > 100 µM (inactive) | GI50 (UO-31): 75.7 µM (inactive) | GI50 (SK-OV-3): > 100 µM (inactive) | GI50 (NCI-H522): > 100 µM (inactive) | GI50 (KM-20L2): > 100 µM (inactive) | GI50 (SF-295): > 100 µM (inactive) | GI50 (DMS-273): > 100 µM (inactive) | GI50 (SK-MEL-28): > 100 µM (inactive) | GI50 (HOP-18): > 100 µM (inactive) | GI50 (786-0): > 100 µM (inactive) | GI50 (HOP-92): 83.2 µM (inactive) | GI50 (SK-MEL-5): > 100 µM (inactive) | GI50 (UACC-257): > 100 µM (inactive) | GI50 (OVCAR-8): > 100 µM (inactive) | GI50 (SNB-78): > 100 µM (inactive) | GI50 (TK-10): > 100 µM (inactive) | GI50 (M14): > 100 µM (inactive) | GI50 (HL-60): > 100 µM (inactive) | GI50 (KM12): > 100 µM (inactive) | GI50 (SW-620): > 100 µM (inactive) | GI50 (U-251): > 100 µM (inactive)

O=C1CC[C@@H](NC(=O)Cc2ccccc2)C(=O)N1
GI50 (LXFL 529): > 100 µM (inactive) | GI50 (A498): > 100 µM (inactive) | GI50 (MOLT-4): > 100 µM (inactive) | GI50 (OVCAR-4): > 100 µM (inactive) | GI50 (Malme-3M): > 100 µM (inactive) | GI50 (IGROV-1): > 100 µM (inactive) | GI50 (HCT-116): > 100 µM (inactive) | GI50 (A549): > 100 µM (inactive) | GI50 (SF-268): > 100 µM (inactive) | GI50 (ACHN): > 100 µM (inactive) | GI50 (UACC-62): > 100 µM (inactive) | GI50 (OVCAR-5): > 100 µM (inactive) | GI50 (SR): > 100 µM (inactive) | GI50 (NCI-H460): > 100 µM (inactive) | GI50 (CAKI-1): > 100 µM (inactive) | GI50 (NCI-H226): > 100 µM (inactive) | GI50 (M19-MEL): > 100 µM (inactive) | GI50 (SF-539): > 100 µM (inactive) | GI50 (XF498): > 100 µM (inactive) | GI50 (RPMI-8226): > 100 µM (inactive) | GI50 (EKVX): > 100 µM (inactive) | GI50 (HOP-62): > 100 µM (inactive) | GI50 (SNB-75): > 100 µM (inactive) | GI50 (DLD-1): > 100 µM (inactive) | GI50 (CCRF-CEM): > 100 µM (inactive) | GI50 (SN12C): > 100 µM (inactive) | GI50 (SK-MEL-2): > 100 µM (inactive) | GI50 (HT-29): > 100 µM (inactive) | GI50 (NCI-H23): > 100 µM (inactive) | GI50 (OVCAR-3): > 100 µM (inactive) | GI50 (LOX IMVI): > 100 µM (inactive) | GI50 (HCC 2998): > 100 µM (inactive) | GI50 (SNB-19): > 100 µM (inactive) | GI50 (COLO 205): > 100 µM (inactive) | GI50 (K562): > 100 µM (inactive) | GI50 (UO-31): > 100 µM (inactive) | GI50 (SK-OV-3): > 100 µM (inactive) | GI50 (NCI-H522): > 100 µM (inactive) | GI50 (KM-20L2): > 100 µM (inactive) | GI50 (SF-295): > 100 µM (inactive) | GI50 (DMS-273): > 100 µM (inactive) | GI50 (SK-MEL-28): > 100 µM (inactive) | GI50 (HOP-18): > 100 µM (inactive) | GI50 (786-0): > 100 µM (inactive) | GI50 (HOP-92): > 100 µM (inactive) | GI50 (SK-MEL-5): > 100 µM (inactive) | GI50 (UACC-257): > 100 µM (inactive) | GI50 (OVCAR-8): > 100 µM (inactive) | GI50 (TK-10): > 100 µM (inactive) | GI50 (M14): > 100 µM (inactive) | GI50 (KM12): > 100 µM (inactive) | GI50 (SW-620): > 100 µM (inactive) | GI50 (U-251): > 100 µM (inactive)

COc1cc(C2c3cc4c(cc3[C@H](NS(C)(=O)=O)C3COC(=O)[C@H]23)OCO4)cc(OC)c1OC (some centres not stated)
GI50 (LXFL 529): 0.731 µM (active) | GI50 (MOLT-4): 0.418 µM (active) | GI50 (Malme-3M): > 100 µM (inactive) | GI50 (SF-268): 0.778 µM (active) | GI50 (ACHN): 0.51 µM (active) | GI50 (HCT-15): 0.448 µM | GI50 (UACC-62): 0.162 µM (active) | GI50 (OVCAR-5): > 100 µM (inactive) | GI50 (SR): 0.251 µM (active) | GI50 (NCI-H460): 0.615 µM (active) | GI50 (NCI-H226): 0.177 µM (active) | GI50 (SF-539): 0.165 µM (active) | GI50 (XF498): 0.56 µM (active) | GI50 (RPMI-8226): 0.394 µM (active) | GI50 (HOP-62): 0.177 µM (active) | GI50 (DLD-1): 0.592 µM (active) | GI50 (CCRF-CEM): 0.444 µM (active) | GI50 (SN12C): 0.482 µM (active) | GI50 (SK-MEL-2): > 100 µM (inactive) | GI50 (HT-29): 0.34 µM (active) | GI50 (NCI-H23): 0.223 µM (active) | GI50 (LOX IMVI): 0.419 µM (active) | GI50 (HCC 2998): 0.435 µM (active) | GI50 (COLO 205): 0.186 µM (active) | GI50 (K562): 0.415 µM (active) | GI50 (UO-31): 9.35 µM (inactive) | GI50 (NCI-H522): 0.0671 µM (active) | GI50 (KM-20L2): 0.162 µM (active) | GI50 (DMS-273): 0.297 µM (active) | GI50 (HOP-18): > 100 µM (inactive) | GI50 (786-0): 0.471 µM (active) | GI50 (DMS-114): 0.226 µM (active) | GI50 (UACC-257): 0.612 µM (active) | GI50 (OVCAR-8): 0.439 µM (active) | GI50 (TK-10): > 100 µM (inactive) | GI50 (M14): 0.426 µM (active) | GI50 (HL-60): 0.253 µM (active) | GI50 (KM12): 0.108 µM (active) | GI50 (U-251): 0.327 µM (active)

From ChEMBL document CHEMBL1201862, “PubChem BioAssay data set” (2004)
